Laboratory results as given in patent publication US4657897A, “N^6 -substituted adenosines for treating pain” (Warner-Lambert Company, priority 1985, dated 1987).
Like-named read-outs stand apart in the source and are kept apart here.

Experiments:
[1] = Mouse Activity and Screen Test (MAST), screen test failure (ST); assay type: in vivo, mouse (Swiss-Webster, male); details: for Inhibition of screen test failure: percent of mice falling off the screen; for minimal effective dose: Mus musculus, ip, read-out: MAST ST LAD
Experimental: Treatments are administered intraperitoneally one hour prior to testing. […] Compounds are dissolved or suspended in 0.2% Methocel. Control animals are injected with Methocel.
The compounds are identified in the Examples.

[2] = molecular target: T1, adenosine A1 receptor (Rattus norvegicus, UniProt P25099); assay: Adenosine Receptor Binding--A1 Receptor Affinity (RBA1), [3H]-CHA binding, rat whole brain membranes; design: species or system rat (male Long Evans); details: 1.0 nM [3H]-CHA, 25° C., 1 h
T1 construct: Whole brain minus cerebellum and brainstem from male Long Evans rats; from tissue; host or cells: rat whole brain minus cerebellum and brainstem (male Long Evans), membranes
T1 sequence (P25099 1-326): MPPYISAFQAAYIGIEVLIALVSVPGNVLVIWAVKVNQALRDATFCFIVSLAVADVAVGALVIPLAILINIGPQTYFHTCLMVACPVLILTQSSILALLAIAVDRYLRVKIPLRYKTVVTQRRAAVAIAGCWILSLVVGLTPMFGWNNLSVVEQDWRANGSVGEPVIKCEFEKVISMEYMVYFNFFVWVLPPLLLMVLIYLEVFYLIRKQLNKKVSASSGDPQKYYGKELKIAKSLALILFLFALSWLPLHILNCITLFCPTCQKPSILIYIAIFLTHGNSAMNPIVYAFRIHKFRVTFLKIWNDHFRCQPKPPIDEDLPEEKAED
Experimental: Adenosine Receptor Binding--A1 Receptor Affinity (RBA1)
Whole brain minus cerebellum and brainstem from male Long Evans rats (150-200 g) was homogenized in 30 volumes of ice-cold 0.05M Tris-HCl buffer pH 7.7 using a Brinkman Polytron PT-10, (setting number 6 for 20 seconds) and centrifuged for ten minutes at 20,000×g (Sorvall RC-2), 4° C. The supernatant was discarded, and the pellet was resuspended and centrifuged as before. The pellet was resuspended in 20 ml Tris-HCl buffer containing two International Units/ml of adenosine deaminase (Sigma type III from calf intestinal mucosa), incubated at 37° C. for 30 minutes, then subsequently at 0° C. for ten minutes. The homogenate was again centrifuged, and the final pellet was resuspended in ice-cold 0.05M Tris-HCl buffer pH 7.7 to a concentration of 20 mg/ml original wet tissue weight and used immediately.
Tissue homogenate (10 mg/ml) was incubated in 0.05M Tris-HCl buffer pH 7.7 containing 1.0 nM [^3 H]-N^6 -cyclohexyladenosine[^3 H]-CHA) with or without test agents in triplicate for one hour at 25° C. Incubation volume was 2 ml. Unbound [^3 H]-CHA was separated by rapid filtration under reduced pressure through Whatman glass fiber (GF/B) filters. The filters were rinsed three times with 5 ml of ice cold 0.05M Tris-HCl buffer pH 7.7. The radio-labeled ligand retained on the filter was measured by liquid scintillation spectrophotometry after shaking the filters for one hour or longer on a mechanical shaker in 10 ml of Beckman Ready-Solv HP scintillation cocktail.
Nonspecific binding was defined as the binding which occurred in the presence of 1 mM theophylline. The concentration of test agent which inhibited 50% of the specific binding (IC50) was determined by nonlinear computer curve fit. The Scatchard plot was calculated by linear regression of the line obtained by plotting the amount of radioligand bound (pmoles/gram of tissue) [formula] Since the amount of radioligand bound was a small fraction of the total amount added, free radioligand was defined as the concentration (nM) of radioligand added to the incubation mixture. The Hill coefficient was calculated by linear regression of the line obtained by plotting the log of the bound radioligand vs the log of the [formula] The maximal number of binding sites (Bmax) was calculated from the Scatchard plot.

[3] = molecular target: T2, adenosine A2 receptor (Rattus norvegicus, UniProt P30543); assay: Adenosine Receptor Binding--A2 Receptor Affinity (RBA2), [3H]NECA binding, rat striatal membranes; design: species or system rat (mixed sex Sprague-Dawley; male Long-Evans); details: 4 nM [3H]NECA, 50 nM N6-cyclopentyladenosine, 25° C., 60 min
T2 construct: 5 mg original tissue weight of rat weight of rat striatal membranes; tissue Pel-Freez (Rogers, Ark.) for the brains; host or cells: rat striatum (Sprague-Dawley; Long-Evans gave essentially identical results), membranes
T2 sequence (P30543 whole entry): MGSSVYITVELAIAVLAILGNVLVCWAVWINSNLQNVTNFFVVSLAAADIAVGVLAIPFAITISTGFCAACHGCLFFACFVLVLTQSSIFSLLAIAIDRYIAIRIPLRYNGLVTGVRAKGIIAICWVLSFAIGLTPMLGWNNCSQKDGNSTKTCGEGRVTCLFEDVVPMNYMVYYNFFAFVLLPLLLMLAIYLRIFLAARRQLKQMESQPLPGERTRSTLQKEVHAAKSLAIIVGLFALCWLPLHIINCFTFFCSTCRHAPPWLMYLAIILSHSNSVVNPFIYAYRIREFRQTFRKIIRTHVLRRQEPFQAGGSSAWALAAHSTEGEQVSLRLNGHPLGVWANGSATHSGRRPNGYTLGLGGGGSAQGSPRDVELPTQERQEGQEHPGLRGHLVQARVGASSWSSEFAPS
Experimental: Adenosine Receptor Binding--A2 Receptor Affinity (RBA2)
Brains from 200-500 g mixed sex Sprague-Dawley rats were purchased from Pel-Freez (Rogers, Ark.). […] Brains were thawed and then kept on ice while the striata were dissected out. Striata were disrupted in 10 vol of ice-cold 50 mM Tris.HCl (pH 7.7 at 25° C., pH 8.26 at 5° C.) (Tris) for 30 seconds in a Polytron PT-10 (Brinkmann) at setting 5. The suspension was centrifuged at 50,000 xg for ten minutes, the supernatant discarded, the pellet resuspended in 10 vol ice-cold Tris as above, recentrifuged, resuspended at 1 g/5 ml, and stored in plastic vials at -70° C. […] When needed, tissue was thawed at room temperature, disrupted in a Polytron, and kept on ice until used.
Test compounds were dissolved at 10 mM in dimethylsulfoxide on the same day as the experiment, and diluted in dimethylsulfoxide to 100× the final incubation concentration. […] [^3 H]NECA was diluted to 40 nM in Tris. […] After all additions, the rack of tubes was vortexed, and the tubes were then incubated for 60 min at 25° C. in a shaking water bath. The rack of tubes was vortexed an additional time halfway through the incubation.
Incubations were terminated by filtration through 2.4 cm GF/B filters under reduced pressure. Each tube was filtered as follows: the contents of the tube were poured onto the filter, 4 ml of ice-cold Tris were added to the tube and the contents poured onto the filter, and the filter was washed twice with 4 ml of ice-cold Tris. The filtration was complete in about twelve seconds. Filters were put in scintillation vials, 8 ml of Formula 947 scintillation fluid added, and the vials left overnight, shaken, and counted in a liquid scintillation counter at 40% efficiency.
The IC50 was calculated by weighted nonlinear least squares curve-fitting to the mass-action equation. [formula] where Y is cpm bound
T is cpm total binding without drug
S is cpm specific binding without drug
D is the concentration of drug
K is the IC50 of the drug
Weighting factors were calculated under the assumption that the standard deviation was proportional to the predicted value of Y. Nonspecific binding was treated as a very large (infinite) concentration of drug in the computer analysis.

[4] = lowest dose at which an A rating is achieved, screen test, intraperitoneal, 1 h prior to testing

IC50 [2] | IC50 [3] | Compound | Inhibition of screen test failure ([1]; 10 mg/kg intraperitoneal) | Inhibition of screen test failure ([1]; 30 mg/kg intraperitoneal) | Inhibition of screen test failure ([1]; 100 mg/kg intraperitoneal) | minimal effective dose [1, 4] | minimal effective dose ([1]; 1 h)
89 nM | 275 nM | Nc1nc(NCC(c2ccccc2)c2ccccc2)c2ncn([C@@H]3O[C@H](CO)[C@@H](O)[C@H]3O)c2n1 [Example 4, N^6-(2,2-Diphenylethyl)-2-aminoadenosine] | 0% | 11% | 22% | > 100 mg/kg | –
846 nM | 5650 nM | OC[C@H]1O[C@@H](n2cnc3c(NC(c4ccccc4)c4ccccc4)ncnc32)[C@H](O)[C@@H]1O [Example 5, N^6 -Diphenylmethyladenosine] | – | – | – | > 100 mg/kg | –
518 nM | 9520 nM | OC[C@H]1O[C@@H](n2cnc3c(NCCCC(c4ccccc4)c4ccccc4)ncnc32)[C@H](O)[C@@H]1O [Example 6, N^6-(4,4-Diphenylbutyl)adenosine] | – | – | – | > 100 mg/kg | –
147 nM | 3290 nM | OC[C@H]1O[C@@H](n2cnc3c(NCCCCC(c4ccccc4)c4ccccc4)ncnc32)[C@H](O)[C@@H]1O [Example 7, N^6-(5,5-Diphenylpentyl)adenosine] | – | – | – | > 100 mg/kg | –
13 nM | 17 nM | Cc1cccc(C(CNc2ncnc3c2ncn3[C@@H]2O[C@H](CO)[C@@H](O)[C@H]2O)c2ccccc2)c1 (stereo partly drawn) [Example 9, N^6-(2-(3-Methylphenyl)-2-phenylethyl)adenosine] | – | – | – | 100 mg/kg | –
14 nM | 71 nM | OC[C@H]1O[C@@H](n2cnc3c(NCC(c4ccccc4)c4ccc(F)cc4)ncnc32)[C@H](O)[C@@H]1O (stereo partly drawn) [Example 10, N^6-(2-(4-Fluorophenyl)-2-phenylethyl)adenosine] | – | – | – | > 100 mg/kg | –
27 nM | 90 nM | OC[C@H]1O[C@@H](n2cnc3c(NCC(c4ccccc4)c4ccc(Cl)cc4)ncnc32)[C@H](O)[C@@H]1O (stereo partly drawn) [Example 15, N^6-(2-(4-Chlorophenyl)-2-phenylethyl)adenosine] | – | – | – | > 100 mg/kg | –
21 nM | 56 nM | COc1ccc(C(CNc2ncnc3c2ncn3[C@@H]2O[C@H](CO)[C@@H](O)[C@H]2O)c2ccccc2)cc1 (stereo partly drawn) [Example 19, N^6-(2-(4-Methoxyphenyl)-2-phenylethyl)adenosine] | – | – | – | 30 mg/kg | –

More lines, now with the values behind:

Compound | IC50 [2] | IC50 [3] | Inhibition of screen test failure ([1]; 10 mg/kg intraperitoneal) | Inhibition of screen test failure ([1]; 30 mg/kg intraperitoneal) | Inhibition of screen test failure ([1]; 100 mg/kg intraperitoneal) | minimal effective dose [1, 4] | minimal effective dose ([1]; 1 h)
OC[C@H]1O[C@@H](n2cnc3c(NCC(c4ccccc4)c4ccccc4)nc(Cl)nc32)[C@H](O)[C@@H]1O [Example 3, N^6-(2,2-Diphenylethyl)-2-chloroadenosine] | 67 nM | 139 nM | 0% | 11% | 44% | > 100 mg/kg | –
CC(CNc1ncnc2c1ncn2[C@@H]1O[C@H](CO)[C@@H](O)[C@H]1O)(c1ccccc1)c1ccccc1 [Example 8, N^6-(2,2-Diphenylpropyl)adenosine] | 66 nM | 41 nM | – | – | – | > 100 mg/kg | –
OC[C@H]1O[C@@H](n2cnc3c(NCC(c4ccccc4)c4ccc(F)cc4)nc(Cl)nc32)[C@H](O)[C@@H]1O (stereo partly drawn) [Example 11, N^6-(2-(4-Fluorophenyl)-2-phenylethyl)-2-chloroadenosine] | 69 nM | 210 nM | – | – | – | > 100 mg/kg | –
Nc1nc(NCC(c2ccccc2)c2ccc(F)cc2)c2ncn([C@@H]3O[C@H](CO)[C@@H](O)[C@H]3O)c2n1 (stereo partly drawn) [Example 12, N^6-(2-(4-Fluorophenyl)-2-phenylethyl)-2-amino adenosine] | 94 nM | 303 nM | – | – | – | > 100 mg/kg | –
OC[C@H]1O[C@@H](n2cnc3c(NCC(c4ccc(F)cc4)c4ccc(F)cc4)ncnc32)[C@H](O)[C@@H]1O [Example 13, N^6-(2,2-Di-(4-fluorophenyl)ethyl)adenosine] | 16 nM | 94 nM | – | – | – | > 100 mg/kg | –
OC[C@H]1O[C@@H](n2cnc3c(NCC(c4ccccc4)c4cccc(Cl)c4)ncnc32)[C@H](O)[C@@H]1O (stereo partly drawn) [Example 14, N^6-(2-(3-Chlorophenyl)-2-phenylethyl)adenosine] | – | – | – | – | – | > 100 mg/kg | –
Nc1nc(NCC(c2ccccc2)c2ccc(Cl)cc2)c2ncn([C@@H]3O[C@H](CO)[C@@H](O)[C@H]3O)c2n1 (stereo partly drawn) [Example 16] | 223 nM | 319 nM | – | – | – | > 100 mg/kg | –
OC[C@H]1O[C@@H](n2cnc3c(NCC(c4ccc(Cl)cc4)c4ccc(Cl)cc4)ncnc32)[C@H](O)[C@@H]1O [Example 17, N^6-(2,2-Di(4-chlorophenyl)ethyl)adenosine] | 512 nM | 713 nM | – | – | – | > 100 mg/kg | –
Nc1nc(NCC(c2ccc(Cl)cc2)c2ccc(Cl)cc2)c2ncn([C@@H]3O[C@H](CO)[C@@H](O)[C@H]3O)c2n1 [Example 18] | 1920 nM | 2120 nM | – | – | – | – | –
O=[N+]([O-])c1ccc(C(CNc2ncnc3c2ncn3[C@@H]2O[C@H](CO)[C@@H](O)[C@H]2O)c2ccc([N+](=O)[O-])cc2)cc1 [Example 20] | – | – | – | – | – | – | > 100 mg/kg
CC(CNc1nc(N)nc2c1ncn2[C@@H]1O[C@H](CO)[C@@H](O)[C@H]1O)(c1ccccc1)c1ccccc1 [Example 21, N^6-(2,2-Diphenylpropyl)-2-aminoadenosine] | 285 nM | 470 nM | – | – | – | > 100 mg/kg | –
OC[C@H]1O[C@@H](n2cnc3c(NCC(O)(c4ccccc4)c4ccccc4)ncnc32)[C@H](O)[C@@H]1O [Example 22, N^6-(2,2-Diphenyl-2-hydroxyethyl)adenosine] | 12 nM | 94 nM | – | – | – | 100 mg/kg | –
O=P(O)(O)OC[C@H]1O[C@@H](n2cnc3c(NCC(c4ccccc4)c4ccccc4)ncnc32)[C@H](O)[C@@H]1O [Example 28, N^6-(2,2-Diphenylethyl)adenosine-5'-phosphate] | – | ~20 nM | – | – | – | > 30 mg/kg | –
